Experimental data reported in patent publication US10894797B2, “Fused tricyclic ring derivatives as SRC homology-2 phosphatase inhibitors” (Nikang Therapuetics, Inc., priority 2018, dated 2021).

Each compound was assayed against SHP2 (Homo sapiens (Human), UniProt Q06124) (assay: SHP2 allosteric inhibition assay (DiFMUP substrate, bisphos-IRS1 peptide activation)). Details: 0.33 nM SHP2, 0.5 μM bisphos-IRS1 peptide, 100 uM DiFMUP, room temperature.
Format: biochemical
Method: At the basal state, SHP2 is auto-inhibited and access of substrates to the catalytic site is blocked by the […] interactions between the SH2 domains and the PTP domain. When bis-tyrosyl-phosphorylated peptides bind to SH2 domain of SHP2, the PTP domain becomes available for substrate recognition and reaction catalysis and SHP2 is allosterically activated. SHP2 catalytic activity can be measured using a fluorogenic artificial substrate DiFMUP.
The phosphatase reactions were carried out at room temperature in 384-well black polystyrene plates (Greiner Bio-One, Cat #784076) using assay buffers containing 60 mM HEPES, pH 7.2, 75 mM NaCl, 75 mM KCl, 1 mM EDTA, 0.05% P-20, and 5 mM DTT.
0.33 nM of SHP2 was co-incubated with of 0.5 μM of bisphos-IRS 1 peptide (sequence: H2N-LN(pY)IDLDLV(dPEG8)LST(pY)ASINFQK-amide) and various concentrations of compounds for 30-60 min at room temperature. Then the reaction was initiated by addition of the surrogate substrate DiFMUP (Invitrogen, Cat #D6567, 100 uM final).
The real-time conversion of DiFMUP to DiFMU (6,8-difluoro-7-hydroxyl-4-methyl-coumarin) was measured every 5 min for 30 min using a microplate reader (CLARIOstar, BMG Labtech) with excitation and emission wavelengths of 340 nm and 450 nm, respectively. Initial reaction rates were determined by linear fitting of the data and the inhibitor dose response curves were analyzed using normalized IC50 regression curve fitting with control-based normalization.

SHP2, sequence (Q06124 whole entry): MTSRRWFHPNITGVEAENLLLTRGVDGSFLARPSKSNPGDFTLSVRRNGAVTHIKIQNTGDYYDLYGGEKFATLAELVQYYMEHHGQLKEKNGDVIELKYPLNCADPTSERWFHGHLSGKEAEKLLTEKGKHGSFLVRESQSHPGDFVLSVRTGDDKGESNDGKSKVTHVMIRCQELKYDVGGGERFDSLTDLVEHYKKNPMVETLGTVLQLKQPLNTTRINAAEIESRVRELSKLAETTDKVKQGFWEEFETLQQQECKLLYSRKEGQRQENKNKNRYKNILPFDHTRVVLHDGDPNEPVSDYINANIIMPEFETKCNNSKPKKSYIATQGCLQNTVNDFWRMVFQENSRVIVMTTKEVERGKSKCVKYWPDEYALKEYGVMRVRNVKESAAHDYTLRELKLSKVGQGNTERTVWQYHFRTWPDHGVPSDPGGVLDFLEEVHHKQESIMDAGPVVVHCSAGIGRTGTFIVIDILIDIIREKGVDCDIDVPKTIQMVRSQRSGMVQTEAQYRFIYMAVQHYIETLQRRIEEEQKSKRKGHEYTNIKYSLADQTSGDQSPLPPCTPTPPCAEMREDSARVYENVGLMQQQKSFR

For CO[C@@H]1C[C@@H]2COc3c(Sc4cnc(N5CCC6(CC5)CO[C@@H](C)[C@H]6N)c(CO)n4)ccnc3N2C1 [Compound 9, (3-((3S,4S)-4-amino-3-methyl-2-oxa-8-azaspiro[4.5]decan-8-yl)-6-(((6aR,8R)-8-methoxy-6a,7,8,9-tetrahydro-6H-pyrido[3,2-b]pyrrolo[1,2-d][1,4]oxazin-4-yl)thio)pyrazin-2-yl)methanol], which IC50 is on record?
The IC50 was 8 nM.

COCCOC[C@H]1C[C@H]2COc3c(Sc4cnc(N5CCC6(CC5)CO[C@@H](C)[C@H]6N)c(CO)n4)ccnc3N2C1 [Compound 32, (3-((3S,4S)-4-amino-3-methyl-2-oxa-8-azaspiro[4.5]decan-8-yl)-6-(((6aS,8S)-8-((2-methoxyethoxy)methyl)-6a,7,8,9-tetrahydro-6H-pyrido[3,2-b]pyrrolo[1,2-d][1,4]oxazin-4-yl)thio)pyrazin-2-yl)methanol] was tested. Which IC50 did it give?
The IC50 was 4 nM.

Which IC50 does the source give for COC[C@H]1C[C@H]2COc3c(Sc4cnc(N5CCC6(CC5)COC5(CCC5)[C@H]6N)c(CO)n4)ccnc3N2C1 [Compound 38, (3-((S)-5-amino-13-oxa-9-azadispiro[3.1.5^6.2^4]tridecan-9-yl)-6-(((6aS,8S)-8-(methoxymethyl)-6a,7,8,9-tetrahydro-6H-pyrido[3,2-b]pyrrolo[1,2-d][1,4]oxazin-4-yl)thio)pyrazin-2-yl)methanol] here?
The IC50 was 5.7 nM.

With C[C@@H]1OCC2(CCN(c3ncc(Sc4ccnc5c4OC[C@@H]4C[C@H](COCC6CC6)CN54)nc3CO)CC2)[C@@H]1N [Compound 33, (3-((3S,4S)-4-amino-3-methyl-2-oxa-8-azaspiro[4.5]decan-8-yl)-6-(((6aS,8S)-8-((cyclopropylmethoxy)methyl)-6a,7,8,9-tetrahydro-6H-pyrido[3,2-b]pyrrolo[1,2-d][1,4]oxazin-4-yl)thio)pyrazin-2-yl)methanol] as the compound, how does the IC50 read?
The IC50 was 2.3 nM.

For C[C@@H]1OCC2(CCN(c3ncc(Sc4ccnc5c4OC[C@@H]4C[C@@H](O)CN54)nc3CO)CC2)[C@@H]1N [Compound 8, (6aS,8R)-4-((5-((3 S,4S)-4-amino-3-methyl-2-oxa-8-azaspiro[4.5]decan-8-yl)-6-(hydroxymethyl)pyrazin-2-yl)thio)-6a,7,8,9-tetrahydro-6H-pyrido[3,2-b]pyrrolo[1,2-d][1,4]oxazin-8-ol], which IC50 is on record?
The IC50 was 8 nM.

With C[C@@H]1OCC2(CCN(c3ncc(Sc4ccnc5c4OC[C@@H]4C[C@H](OCC6CC6)CN54)nc3CO)CC2)[C@@H]1N [Compound 16, (3-((3S,4S)-4-amino-3-methyl-2-oxa-8-azaspiro[4.5]decan-8-yl)-6-(((6aS,8S)-8-(cyclopropylmethoxy)-6a,7,8,9-tetrahydro-6H-pyrido[3,2-b]pyrrolo[1,2-d][1,4]oxazin-4-yl)thio)pyrazin-2-yl)methanol] as the compound, how does the IC50 read?
The IC50 was 3 nM.

C[C@@H]1OCC2(CCN(c3ncc(Sc4ccnc5c4OC[C@@H]4CCCN54)nc3CO)CC2)[C@@H]1N [Compound 1, (3-((3S,4S)-4-amino-3-methyl-2-oxa-8-azaspiro[4.5]decan-8-yl)-6-(((S)-6a,7,8,9-tetrahydro-6H-pyrido[3,2-b]pyrrolo[1,2-d][1,4]oxazin-4-yl)thio)pyrazin-2-yl)methanol] was tested. Which IC50 did it give?
The IC50 was 3 nM.

How did the IC50 turn out when C[C@@H]1OCC2(CCN(c3ncc(Sc4ccnc5c4OCC4CS(=O)(=O)CCN54)nc3CO)CC2)[C@@H]1N (stereo partly drawn) [Compound 28, 4-((5-((3S,4S)-4-amino-3-methyl-2-oxa-8-azaspiro[4.5]decan-8-yl)-6-(hydroxymethyl)pyrazin-2-yl)thio)-6a,7,9,10-tetrahydro-6H-pyrido[3,2-b][1,4]thiazino[4,3-d][1,4]oxazine 8,8-dioxide] was run?
Its IC50 is 13 nM.

How did the IC50 turn out when COC[C@H]1C[C@H]2COc3c(Sc4cnc(N5CCC6(CC5)CO[C@@H](C)[C@H]6N)c(CO)n4)ccnc3N2C1 [Compound 29, (3-((3S,4S)-4-amino-3-methyl-2-oxa-8-azaspiro[4.5]decan-8-yl)-6-(((6aS,8S)-8-(methoxymethyl)-6a,7,8,9-tetrahydro-6H-pyrido[3,2-b]pyrrolo[1,2-d][1,4]oxazin-4-yl)thio)pyrazin-2-yl)methanol] was run?
Its IC50 is 3.6 nM.

For C[C@@H]1OCC2(CCN(c3ncc(Sc4ccnc5c4OC[C@@H]4C[C@H](CO)CN54)nc3CO)CC2)[C@@H]1N [Compound 41, (3-((3S,4S)-4-amino-3-methyl-2-oxa-8-azaspiro[4.5]decan-8-yl)-6-(((6aS,8S)-8-(hydroxymethyl)-6a,7,8,9-tetrahydro-6H-pyrido[3,2-b]pyrrolo[1,2-d][1,4]oxazin-4-yl)thio)pyrazin-2-yl)methanol], which IC50 is on record?
Its IC50 is 5 nM.

For COC[C@@H]1C[C@H]2COc3c(Sc4cnc(N5CCC6(CC5)Cc5ncccc5[C@H]6N)c(CO)n4)ccnc3N2C1 [Compound 37, (3-((S)-5-amino-5,7-dihydrospiro[cyclopenta[b]pyridine-6,4′-piperidin]-1′-yl)-6-(((6aS,8R)-8-(methoxymethyl)-6a,7,8,9-tetrahydro-6H-pyrido[3,2-b]pyrrolo[1,2-d][1,4]oxazin-4-yl)thio)pyrazin-2-yl)methanol], which “Shp2 IC50(nM)” value is on record?
The value was “One of 36 and 37 is 2.7 and the other is 4.2”.

With C[C@@H]1OCC2(CCN(c3ncc(Sc4ccnc5c4OC[C@H]4CCCN54)nc3CO)CC2)[C@@H]1N [Compound 2, (3-((3S,4S)-4-amino-3-methyl-2-oxa-8-azaspiro[4.5]decan-8-yl)-6-(((R)-6a,7,8,9-tetrahydro-6H-pyrido[3,2-b]pyrrolo[1,2-d][1,4]oxazin-4-yl)thio)pyrazin-2-yl)methanol] as the compound, how does the IC50 read?
The IC50 was 4 nM.

For C[C@@H]1OCC2(CCN(c3ncc(Sc4ccnc5c4OC[C@@H]4C[C@H](O[C@H]6CCOC6)CN54)nc3CO)CC2)[C@@H]1N [Compound 11, (3-((3S,4S)-4-amino-3-methyl-2-oxa-8-azaspiro[4.5]decan-8-yl)-6-(((6aS,8S)-8-(((S)-tetrahydrofuran-3-yl)oxy)-6a,7,8,9-tetrahydro-6H-pyrido[3,2-b]pyrrolo[1,2-d][1,4]oxazin-4-yl)thio)pyrazin-2-yl)methanol], which IC50 is on record?
Its IC50 is 14 nM.

For C[C@@H]1OCC2(CCN(c3ncc(Sc4ccnc5c4OC[C@@H]4C[C@H](COCC6COC6)CN54)nc3CO)CC2)[C@@H]1N [Compound 34, (3-((3S,4S)-4-amino-3-methyl-2-oxa-8-azaspiro[4.5]decan-8-yl)-6-(((6aS,8S)-8-((oxetan-3-ylmethoxy)methyl)-6a,7,8,9-tetrahydro-6H-pyrido[3,2-b]pyrrolo[1,2-d][1,4]oxazin-4-yl)thio)pyrazin-2-yl)methanol], which IC50 is on record?
The IC50 was 6.2 nM.

C[C@@H]1OCC2(CCN(c3ncc(Sc4ccnc5c4OC[C@@H]4C[C@H](S(C)(=O)=O)CN54)nc3CO)CC2)[C@@H]1N [Compound 21, (3-((3S,4S)-4-amino-3-methyl-2-oxa-8-azaspiro[4.5]decan-8-yl)-6-(((6aS,8S)-8-(methylsulfonyl)-6a,7,8,9-tetrahydro-6H-pyrido[3,2-b]pyrrolo[1,2-d][1,4]oxazin-4-yl)thio)pyrazin-2-yl)methanol] was tested. Which IC50 did it give?
Its IC50 is 13 nM.

Which “Shp2 IC50(nM)” value does the source give for C[C@@H]1OCC2(CCN(c3ncc(Sc4ccnc5c4OC[C@@H]4COCCN54)nc3CO)CC2)[C@@H]1N [Compound 27, (3-((3S,4S)-4-amino-3-methyl-2-oxa-8-azaspiro[4.5]decan-8-yl)-6-(((S)-6a,7,9,10-tetrahydro-6H-[1,4]oxazino[4,3-d]pyrido[3,2-b][1,4]oxazin-4-yl)thio)pyrazin-2-yl)methanol] here?
The value was “one of 26 and 27 is 10 and the other is 8”.

For COC[C@H]1C[C@H]2COc3c(Sc4ncc(N5CCC6(CC5)CO[C@@H](C)[C@H]6N)nc4N)ccnc3N2C1 [Compound 45, (3S,4S)-8-(6-amino-5-(((6aS,8S)-8-(methoxymethyl)-6a,7,8,9-tetrahydro-6H-pyrido[3,2-b]pyrrolo[1,2-d][1,4]oxazin-4-yl)thio)pyrazin-2-yl)-3-methyl-2-oxa-8-azaspiro[4.5]decan-4-amine], which IC50 is on record?
The IC50 was 9.4 nM.

For COCOC[C@@H]1C[C@@H]2COc3c(Sc4cnc(N5CCC6(CC5)CO[C@@H](C)[C@H]6N)c(CO)n4)ccnc3N2C1 [Compound 52, (3-((3S,4S)-4-amino-3-methyl-2-oxa-8-azaspiro[4.5]decan-8-yl)-6-(((6aR,8R)-8-((methoxymethoxy)methyl)-6a,7,8,9-tetrahydro-6H-pyrido[3,2-b]pyrrolo[1,2-d][1,4]oxazin-4-yl)thio)pyrazin-2-yl)methanol], which IC50 is on record?
The IC50 was 3.7 nM.

With CO[C@H]1C[C@H]2COc3c(Sc4cnc(N5CCC6(CC5)CO[C@@H](C)[C@H]6N)c(CO)n4)ccnc3N2C1 [Compound 5, (3-((3S,4S)-4-amino-3-methyl-2-oxa-8-azaspiro[4.5]decan-8-yl)-6-(((6aS,8S)-8-methoxy-6a,7,8,9-tetrahydro-6H-pyrido[3,2-b]pyrrolo[1,2-d][1,4]oxazin-4-yl)thio)pyrazin-2-yl)methanol] as the compound, how does the IC50 read?
Its IC50 is 8 nM.

How did the IC50 turn out when COCOC[C@H]1C[C@H]2COc3c(Sc4ncc(N5CCC6(CC5)Cc5ncccc5[C@H]6N)nc4N)ccnc3N2C1 [Compound 47, (S)-1′-(6-amino-5-(((6aS,8S)-8-((methoxymethoxy)methyl)-6a,7,8,9-tetrahydro-6H-pyrido[3,2-b]pyrrolo[1,2-d][1,4]oxazin-4-yl)thio)pyrazin-2-yl)-5,7-dihydrospiro[cyclopenta[b]pyridine-6,4′-piperidin]-5-amine] was run?
The IC50 was 8.4 nM.
